Data taken from patent publication US9278958B2, “Anti-cancer compounds” (KATHOLIEKE UNIVERSITEIT LEUVEN, priority 2012, dated 2016).
Like-named read-outs stand apart in the source and are kept apart here.

Assays:
[1] = test system: HL60, human leukemia cells; assay: Cytostatic assay, HL-60; assay type: cell-based; conditions: Table 2
Method: (§1) To each well of a 96-well microtiter plate were added 5-7.5×10^4 cells and a given amount of the test compound. The cells were allowed to proliferate for 48 h to 96 h (depending on the nature of the cell line) at 37° C. in a humidified CO2-controlled atmosphere. At the end of the incubation period, the cells were counted in a Coulter Counter (Coulter Electronics Ltd, Harpenden Herts, United Kingdom).

[2] = test system: Huh-7 hepatoma cells; assay: Cytostatic assay, Huh-7; assay type: cell-based; conditions: Homo sapiens, Table 4
Method: as §1

[3] = test system: MCF-7 mammary carcinoma cells; assay: Cytostatic assay, MCF-7; assay type: cell-based; conditions: Homo sapiens, MCF7; Table 3
Method: as §1

[4] = test system: HEL embryonic lung fibroblast cells; assay: Cytostatic assay, HEL; assay type: cell-based; conditions: Homo sapiens, Table 3
Method: as §1

[5] = test system: C8166 cells; assay: Cytostatic assay, C8166; assay type: cell-based; conditions: Homo sapiens, Table 2
Method: as §1

[6] = test system: Caki-2 kidney carcinoma cells; assay: Cytostatic assay, Caki-2; assay type: cell-based; conditions: Homo sapiens, Table 3
Method: as §1

[7] = test system: THP-1, human monocytic cells; assay: Cytostatic assay, THP-1; assay type: cell-based; conditions: Table 2
Method: as §1

[8] = test system: L1210 cells; assay: Cytostatic assay, L1210; assay type: cell-based; conditions: Mus musculus, Table 2
Method: as §1

[9] = test system: Raji, human B-lymphoma cells; assay: Cytostatic assay, Raji; assay type: cell-based; conditions: Table 2
Method: as §1

[10] = test system: DU145 (UZ) prostate cancer cells; assay: Cytostatic assay, DU145 (UZ); assay type: cell-based; conditions: Homo sapiens, DU-145; Table 4
Method: as §1

[11] = test system: OST TK- osteosarcoma cells; assay: Cytostatic assay, OST TK-; assay type: cell-based; conditions: Homo sapiens; Table 3
Method: as §1

[12] = test system: 293T embryonic kidney cells; assay: Cytostatic assay, 293T; assay type: cell-based; conditions: Homo sapiens, HEK-293T; Table 3
Method: as §1

[13] = test system: MT-2 cells; assay: Cytostatic assay, MT-2; assay type: cell-based; conditions: Homo sapiens, MT2; Table 2
Method: as §1

[14] = test system: U937, human monocytic cells; assay: Cytostatic assay, U937; assay type: cell-based; conditions: U-937, Table 2
Method: as §1

[15] = test system: BPH-1 (UZ); assay: Cytostatic assay, BPH-1 (UZ); assay type: cell-based; conditions: Homo sapiens, Table 4
Method: as §1

[16] = test system: FM3A mammary carcinoma cells; assay: Cytostatic assay, FM3A; assay type: cell-based, murine; conditions: Mus musculus, Table 3
Method: as §1

[17] = test system: PNT1A (UZ) prostate cells; assay: Cytostatic assay, PNT1A (UZ); assay type: cell-based; conditions: Homo sapiens, Table 4
Method: as §1

[18] = test system: BAEC aortic endothelial cells; assay: Cytostatic assay, BAEC; assay type: cell-based, bovine; conditions: Bos taurus, Table 3
Method: as §1

[19] = test system: PC-3 (UZ) prostate cancer cells; assay: Cytostatic assay, PC-3 (UZ); assay type: cell-based; conditions: Table 4
Method: as §1

[20] = test system: broad variety of tumor cell lines; assay: Cytostatic assays, summary over the panel of cell lines (Tables 2-4); assay type: cell-based; conditions: range over the cell lines of Tables 2-4; read-out: IC50 range (antiproliferative activity)
Method: as §1

[21] = test system: HT29 colorectal carcinoma cells; assay: Cytostatic assay, HT29; assay type: cell-based; conditions: Homo sapiens, HT-29; Table 3
Method: as §1

[22] = test system: HUT-78 cells; assay: Cytostatic assay, HUT-78; assay type: cell-based; conditions: Homo sapiens, HuT78; Table 2
Method: as §1

[23] = test system: MT-4 cells; assay: Cytostatic assay, MT-4; assay type: cell-based; conditions: Homo sapiens, MT4; Table 2
Method: as §1

[24] = test system: 22Rv1 (UZ) prostate cancer cells; assay: Cytostatic assay, 22Rv1 (UZ); assay type: cell-based; conditions: Homo sapiens, Table 4
Method: as §1

[25] = test system: Sup T1 cells; assay: Cytostatic assay, Sup T1; assay type: cell-based; conditions: Homo sapiens, Table 2, read-out: Cytostatic activity (μM) Sup T 1
Method: as §1

[26] = test system: U87 glioma cells; assay: Cytostatic assay, U87; assay type: cell-based; conditions: Homo sapiens, U-87 MG; Table 3
Method: as §1

[27] = test system: Caki-1 kidney carcinoma cells; assay: Cytostatic assay, Caki-1; assay type: cell-based; conditions: Homo sapiens, Table 3
Method: as §1

[28] = test system: PC3 (rega) prostate cancer cells; assay: Cytostatic assay, PC3 (rega); assay type: cell-based; conditions: Table 4
Method: as §1

[29] = test system: LNCaP (UZ) prostate cancer cells; assay: Cytostatic assay, LNCaP (UZ); assay type: cell-based; conditions: Homo sapiens, Table 4
Method: as §1

[30] = test system: CEM cells; assay: Cytostatic assay, CEM; assay type: cell-based; conditions: Homo sapiens, CCRF-CEM
Method: as §1

[31] = test system: Molt4/C8 cells; assay: Cytostatic assay, Molt4/C8; assay type: cell-based; conditions: Table 2
Method: as §1

[32] = test system: HepG2C3A hepatoma cells; assay: Cytostatic assay, HepG2C3A; assay type: cell-based; conditions: Homo sapiens, HepG2/C3A; Table 4
Method: as §1

[33] = test system: HeLa cervix carcinoma cells; assay: Cytostatic assay, HeLa; assay type: cell-based, human; conditions: Homo sapiens; Table 3; read-out: Cytostatic activity (μM) Hela
Method: as §1

[34] = test system: PLC/PRF/5 hepatoma cells; assay: Cytostatic assay, PLC/PRF/5; assay type: cell-based; conditions: Homo sapiens, Table 4
Method: as §1

[35] = Table 1a, read-out: IC50 μM (CEM)
[36] = Table 2, read-out: Cytostatic activity (μM) CEM

Compound | IC50 [1] [µM] | IC50 [2] [µM] | IC50 [3] [µM] | IC50 [4] [µM] | IC50 [5] [µM] | IC50 [6] [µM] | IC50 [7] [µM] | IC50 [8] [µM] | IC50 [9] [µM] | IC50 [10] [µM] | IC50 [11] [µM] | IC50 [12] [µM] | IC50 [13] [µM] | IC50 [14] [µM] | IC50 [15] [µM] | IC50 [16] [µM] | IC50 [17] [µM] | IC50 [18] [µM] | IC50 [19] [µM] | IC50 [21] [µM] | also measured
COc1ccc(-c2cc(C#N)c(N)s2)cc1 [TR582, 2-Amino-5-(4-methoxy-phenyl)-thiophene-3-carbonitrile] | ≥ 135 | > 100 | 117 ± 58 | 33 ± 0.71 | > 200 | ≥ 200 | 124 ± 25 | 230 ± 65 | > 100 | > 100 | 134 ± 69 | > 100 | ≥ 161 | > 200 | > 100 | 320 ± 14 | > 100 | > 100 | > 100 | > 100 | IC50 [20]: 24 to 320 µM; IC50 [22]: > 200 µM; IC50 [23]: 76 ± 35 µM; IC50 [24]: 34 ± 26 µM; IC50 [25]: > 200 µM; IC50 [26]: > 100 µM; IC50 [27]: 19 ± 18 µM; IC50 [28]: 69 ± 21 µM; IC50 [29]: 4.8 ± 3.4 µM; IC50 [30, 35]: 233 µM; IC50 [30, 36]: 233 ± 29 µM; IC50 [31]: 275 ± 89 µM; IC50 [32]: ≥ 100 µM; IC50 [33]: 168 ± 15 µM; IC50 [34]: 49 ± 3.5 µM
COc1ccc(CCc2cc(C#N)c(N)s2)cc1 [TR586, 2-Amino-5-[2-(4-methoxy-phenyl)-ethyl]-thiophene-3-carbonitrile] | 1.9 ± 0.42 | > 100 | 114 ± 62 | > 100 | 57 ± 56 | 28 ± 27 | 4.3 ± 0.6 | 14 ± 4 | 36 ± 21 | 8.3 ± 2.5 | 27 ± 18 | 28 ± 3.5 | 6.8 ± 3.7 | 17 ± 2.8 | 59 ± 18 | 34 ± 23 | 38 ± 14 | 38 ± 2.1 | 4.2 ± 0.14 | 34 ± 6.4 | IC50 [22]: 17 ± 8.1 µM; IC50 [23]: 74 ± 37 µM; IC50 [24]: 17 ± 8.1 µM; IC50 [25]: 79 ± 42 µM; IC50 [26]: > 100 µM; IC50 [27]: 1.9 ± 0.42 µM; IC50 [28]: 1.8 ± 2 µM; IC50 [29]: 0.83 ± 0.35 µM; IC50 [30, 35]: 16 µM; IC50 [30, 36]: 16 ± 17 µM; IC50 [31]: 1.4 ± 0.8 µM; IC50 [32]: 46 ± 13 µM; IC50 [33]: 21 ± 9.9 µM; IC50 [34]: 37 ± 0.71 µM
COC(=O)c1cc(-c2ccc(OC)cc2)sc1N [TR572, 2-Amino-5-(4-methoxy-phenyl)-thiophene-3-carboxylic acid methyl ester] | 11 ± 1.4 | 42 ± 7.8 | 119 ± 52 | 34 ± 20 | 179 ± 18 | 9 ± 1.4 | 21 ± 0.7 | 60 ± 12 | 61 ± 18 | 18 ± 9.2 | 25 ± 2.1 | > 100 | 12 ± 1.4 | 63 ± 7.1 | 58 ± 6.4 | 97 ± 32 | 53 ± 2.1 | 47 ± 3.5 | 4.3 ± 1.7 | 42 ± 3.5 | IC50 [22]: 26 ± 17 µM; IC50 [23]: 40 ± 12 µM; IC50 [24]: 69 ± 44 µM; IC50 [25]: 55 ± 30 µM; IC50 [26]: 71 ± 3.5 µM; IC50 [27]: 4.4 ± 1.9 µM; IC50 [28]: 5.5 ± 4 µM; IC50 [29]: 1.1 ± 0.84 µM; IC50 [30, 35]: 74 µM; IC50 [30, 36]: 74 ± 3.5 µM; IC50 [31]: 44 ± 9 µM; IC50 [32]: 28 ± 8.5 µM; IC50 [33]: 63 ± 19 µM; IC50 [34]: 42 ± 2.1 µM
